# Patent US20120149080A1, “YEAST PRODUCTION CULTURE FOR THE PRODUCTION OF BUTANOL” (Butamax(TM) Advanced Biofuels LLC, priority 2010, published 2012)
# What was measured:
# [1] = tested on: Saccharomyces cerevisiae BY4743; test: Glucose utilization rate in high cell density culture in YPD; assay type: cell-based
# Experimental: Saccharomyces cerevisiae BY4743 was plated from a freezer vial onto YPD agar (Teknova, Hollister, Calif.; Cat. #Y1000) and incubated overnight at 30° C. Cells from the YPD plate were inoculated into a 25 ml pre-culture of YPD broth (Teknova, Hollister, Calif.; Cat. #Y5000) with an initial OD600 of 0.06 to 0.08, and this culture was grown for 7 hours in an air shaker at 30° C. An aliquot of the pre-culture was inoculated into 200 ml of YPD broth with an initial OD600 of 0.06 to 0.08, and this culture was incubated with aeration at 30° C. for approximately 17 hours. The optical density of the culture was determined, the culture was centrifuged and the cells were resuspended in fresh YPD broth to yield an OD600 of 8. […] Time of addition of cells was referred to as 0 hours. At various times, samples (1.5 ml) were withdrawn and centrifuged at 10,000 rpm for 2 minutes in a microfuge (Sorvall Biofuge pico). […] YSI, Inc., Yellow Springs, Ohio). Glucose consumption rates in the presence of isobutanol were also determined when the cell concentration was 18 gdcw/L or 24 gdcw/L. Cells from the YPD plate were inoculated into a 25 ml pre-culture of YPD broth (Teknova, Hollister, Calif. Cat. #Y5000) with an initial OD600 of 0.06 to 0.08, and this culture was grown for 7 hours in an air shaker at 30° C. […] The optical density of the culture was determined, the culture was centrifuged and the cells were resuspended in fresh YPD broth to yield an OD600 of 38 (18 gdcw/L). […] The experiment was repeated except that the starting OD600 was 49.1 (24 gdcw/L). […] The results for BY4743 are graphed in FIG. 4.
# [2] = tested on: Saccharomyces cerevisiae BY4743; test: Growth (OD600) of yeast in varying isobutanol concentrations; assay type: cell-based
# Experimental: Saccharomyces cerevisiae BY4743 was plated from a freezer vial onto YPD agar (Teknova, Hollister, Calif.; Cat. #Y1000) and incubated overnight at 30° C. Cells from the YPD plate were inoculated into a 25 ml pre-culture of YPD broth (Teknova, Hollister, Calif.; Cat. #Y5000) with an initial OD600 of 0.06 to 0.08. The pre-culture was grown for 7 hours in an aerobic shaker at 30° C. An aliquot of the pre-culture was inoculated into 125 ml of YPD broth, with an initial OD600 of 0.06 to 0.08, and this culture was incubated with aeration at 30° C. for approximately 17 hours.
# A starter culture of 150 ml of YPD was inoculated with 5 ml of the overnight culture with an initial OD600 of 0.15. This culture was incubated at 30° C. with aeration for two hours, reaching OD600 of 0.38. At this time (time=0) the cultures were challenged with varying concentrations of isobutanol as given in Table 4 and the OD600 was assayed every hour for 5 h and at 24 h.
# [3] = Alcohol concentration of cultures after 24 hours by HPLC; assay type: physicochemical; conditions: Example 2 cultures, 30° C.
# Experimental: Saccharomyces cerevisiae BY4743 (ATCC 201390) was plated from a freezer vial onto YPD agar (Teknova, Hollister, Calif.; Cat. #Y1000) and incubated overnight at 30° C. Cells from the YPD plate were inoculated into a 25 ml pre-culture of YPD broth (Teknova; Cat. #Y5000) with an initial OD600 of 0.06 to 0.08. The pre-culture was grown for 7 hours in an aerobic shaker at 30° C. An aliquot of the pre-culture was inoculated into 200 ml of YPD broth, with an initial OD600 of 0.06 to 0.08, and this culture was incubated with aeration at 30° C. for approximately 17 hours. The optical density of the culture was measured, the culture was centrifuged and the cells were resuspended to yield an OD600 of 5 in fresh YPD broth. This is referred to as a high cell density (HCD) culture. […] This is referred to as a low the cell density (LCD) culture. These cultures were incubated at 30° C. with shaking for 30 minutes for an acclimation period. At the end of the 30 minute acclimation period, the OD600 was measured. 5 ml of low or high cell density culture was dispensed to 15 ml conical tubes which contained different concentrations of the alcohol to be tested. […] All samples were filtered with Acrodisc CR PTFE 0.2 μm filters (Pall Life Sciences, Port Washington, N.Y.) and analyzed using a Shodex SH1011 column (8 mm ID×300 mm length; Showa Denko America, Inc., New York, N.Y.) and a Shodex SH-G as a guard column. […]
# [4] = 1.5% isobutanol, 3.8 and 24 gdcw/L cultures
compound,measurement,setting,value
"CC(C)CO [Isobutanol, isobutanol]",calculated rate of glucose utilization,"[1]; 1% isobutanol, high cell density cultures",at least 1.4 gram per gdcw per hour
same,glucose consumption rate,[1]; [4],about 1.1 g/gdcw/h
same,"glucose consumption rate, % of the control rate",[1]; [4],approximately 50%
same,rate of glucose utilization,"[1]; 1.5% isobutanol, 3.8 gdcw/L and 24 gdcw/L cultures",at least 1 gram per gdcw per hour
same,rate of glucose utilization,"[1]; 2% isobutanol, high cell density cultures",at least 0.5 gram per gdcw per hour
same,rate of glucose utilization,"[1]; 2.5% isobutanol, high cell density cultures",at least 0.4 gram per gdcw per hour
same,rate of glucose utilization,"[1]; 3% isobutanol, high cell density cultures",at least 0.2 gram per gdcw per hour
same,Growth (OD 600),"[2]; 0.5% isobutanol, 1 hour",0.55 OD 600
same,Growth (OD 600),"[2]; 0.5% isobutanol, 2 hours",0.74 OD 600
same,Growth (OD 600),"[2]; 0.5% isobutanol, 3 hours",1.12 OD 600
same,Growth (OD 600),"[2]; 0.5% isobutanol, 4 hours",1.69 OD 600
same,Growth (OD 600),"[2]; 0.5% isobutanol, 5 hours",2.22 OD 600
same,Growth (OD 600),"[2]; 0.5% isobutanol, 24 hours",5.19 OD 600
same,Growth (OD 600),"[2]; 0.5% isobutanol, time 0 hours",0.38 OD 600
same,Growth (OD 600),"[2]; 0.75% isobutanol, 1 hour",0.54 OD 600
same,Growth (OD 600),"[2]; 0.75% isobutanol, 2 hours",0.68 OD 600
same,Growth (OD 600),"[2]; 0.75% isobutanol, 3 hours",1.00 OD 600
same,Growth (OD 600),"[2]; 0.75% isobutanol, 4 hours",1.36 OD 600
same,Growth (OD 600),"[2]; 0.75% isobutanol, 5 hours",1.80 OD 600
same,Growth (OD 600),"[2]; 0.75% isobutanol, 24 hours",4.97 OD 600
same,Growth (OD 600),"[2]; 0.75% isobutanol, time 0 hours",0.38 OD 600
same,Growth (OD 600),"[2]; 1% isobutanol, 1 hour",0.51 OD 600
same,Growth (OD 600),"[2]; 1% isobutanol, 2 hours",0.62 OD 600
same,Growth (OD 600),"[2]; 1% isobutanol, 3 hours",0.82 OD 600
same,Growth (OD 600),"[2]; 1% isobutanol, 4 hours",0.96 OD 600
same,Growth (OD 600),"[2]; 1% isobutanol, 5 hours",1.16 OD 600
same,Growth (OD 600),"[2]; 1% isobutanol, 24 hours",4.41 OD 600
same,cell concentration reached,"[2]; 1% isobutanol, after overnight growth, one OD600 = 10^7 cells/ml",about 4×10^7 cells/ml
same,Growth (OD 600),"[2]; 1% isobutanol, time 0 hours",0.38 OD 600
same,Growth (OD 600),"[2]; 1.5% isobutanol, 1 hour",0.46 OD 600
same,Growth (OD 600),"[2]; 1.5% isobutanol, 2 hours",0.50 OD 600
same,Growth (OD 600),"[2]; 1.5% isobutanol, 3 hours",0.53 OD 600
same,Growth (OD 600),"[2]; 1.5% isobutanol, 4 hours",0.61 OD 600
same,Growth (OD 600),"[2]; 1.5% isobutanol, 5 hours",0.65 OD 600
same,Growth (OD 600),"[2]; 1.5% isobutanol, 24 hours",1.41 OD 600
same,Growth (OD 600),"[2]; 1.5% isobutanol, time 0 hours",0.38 OD 600
same,Growth (OD 600),"[2]; 2% isobutanol, 1 hour",0.43 OD 600
same,Growth (OD 600),"[2]; 2% isobutanol, 2 hours",0.46 OD 600
same,Growth (OD 600),"[2]; 2% isobutanol, 3 hours",0.47 OD 600
same,Growth (OD 600),"[2]; 2% isobutanol, 4 hours",0.49 OD 600
same,Growth (OD 600),"[2]; 2% isobutanol, 5 hours",0.50 OD 600
same,Growth (OD 600),"[2]; 2% isobutanol, 24 hours",0.90 OD 600
same,Growth (OD 600),"[2]; 2% isobutanol, time 0 hours",0.38 OD 600
same,Growth (OD 600),"[2]; 2.5% isobutanol, 1 hour",0.42 OD 600
same,Growth (OD 600),"[2]; 2.5% isobutanol, 2 hours",0.42 OD 600
same,Growth (OD 600),"[2]; 2.5% isobutanol, 3 hours",0.42 OD 600
same,Growth (OD 600),"[2]; 2.5% isobutanol, 4 hours",0.45 OD 600
same,Growth (OD 600),"[2]; 2.5% isobutanol, 5 hours",0.45 OD 600
same,Growth (OD 600),"[2]; 2.5% isobutanol, 24 hours",0.52 OD 600
same,Growth (OD 600),"[2]; 2.5% isobutanol, time 0 hours",0.38 OD 600
same,alcohol lost during the incubation period,[3],< 0.01%
